Key:
[1] = test system: intracellular S. aureus Newbould 305 in bovine mammary epithelial cell line (MAC-T); assay: Intracellular S. aureus eradication assay in MAC-T cells; assay type: cell-based; conditions: 25 μg in 1 ml DMEM, 2.5 h
Excerpt: (§1) FIGS. 5a-5e depict peptidoglycan hydrolase-protein transduction domain (PGH-PTD) eradication of intracellular S. aureus in cultured cells. Cultured cells were infected, treated with gentamicin to kill extracellular S. aureus, and then treated with the peptidoglycan hydrolases indicated. All results are standardized to the gentamicin (GENT) only control. Nomenclature of the peptidoglycan hydrolase constructs is as in FIG. 1. Asterisks indicate statistical significance detected with single factor ANOVA (α=0.05) with paired t-test posthoc analyses α=0.05 adjusted with Sidák correction for multiple comparisons (for all cases p<0.01). […] Error bars represent SEM. […] Yellow staining in the combined panel represents intracellular co-localization (in a single plane as determined by z-stack analysis) of both S. aureus and K-L-PTD1 (blue arrow). […]
(§2) Three similar intracellular S. aureus eradication assays from three different labs were optimized for (A) a cultured bovine mammary epithelial cell line (MAC-T, Nexia Biotechnologies, Quebec, Canada; Almeida, supra), (B) primary C57BL/6 mouse-derived osteoblasts (mOBs) (McCall et al. 2008. J. Bone Miner. Res. 23: 30-40) or (C) human brain microvascular endothelial cells (hBMEC; Stins, supra). […] The cell lysate was subjected to serial dilution plating, and the resultant CFUs were counted and normalized to the gentamicin control for each assay. […]

[2] = test system: intracellular S. aureus strain ISP479C in human brain microvascular endothelial cells (hBMEC); assay: Intracellular S. aureus eradication assay in hBMEC; assay type: cell-based; conditions: 5 μg/ml, 1 h
Excerpt: as §1, §2

S. aureus Newbould 305 [3] = assay: Turbidity reduction assay; assay type: cell-based; conditions: 1 μM enzyme, cells at OD600nm 1.0, FIG. 6a
Procedure: (§3) FIG. 6a depicts the specific activity of peptidoglycan hydrolase fusion constructs in vitro in a turbidity reduction assay with S. aureus Newbould 305 resuspended in lysis buffer to an OD600nm of 1.0 and treated with 1 μM final concentrations of each peptidoglycan hydrolase. The maximum specific activity for three experiments are represented as an average with SEM error bars. FIG. 6b depicts the bacterial burden in mice with mastitis treated with recombinant peptidoglycan hydrolases. Colony Forming Units (CFUs) from infected murine mammary glands following a single treatment with 50 μl of 25 μM peptidoglycan hydrolase (1.25 nmol). Each data point represents the average of duplicate bacterial platings. The horizontal bars represent the average CFU/mg for each group. FIG. 6c illustrates the TNFα response in mice with mastitis that were treated with peptidoglycan hydrolases. Data represents a minimum of 7 measurements in duplicate. Log TNFα was used for statistical analysis. Single asterisks indicate a significant difference from buffer control (p<0.05); double asterisks indicate a significant difference from the parental enzyme (p<0.05).
FIG. 7 depicts a turbidity reduction assay of select peptidoglycan hydrolases against S. aureus Newbould 305. Bacterial cells were resuspended in lysis buffer to an OD600nm of 1.0 and lysed with 1 μM final concentrations of each peptidoglycan hydrolase. The maximum rate of ΔOD of three experiments are represented as an average with error bars representing SEM. Double asterisks indicate significant difference from parental. Mean comparisons were performed with one way ANOVA (P=3.3×10^−5) with t test post hoc analysis with Sidák adjusted alpha (p<0.01).

S. aureus Newbould 305 [4] = assay: Murine model of mastitis, bacterial load; assay type: in vivo, C57BL6/SJL mice; conditions: for bacterial load / clearance of mammary glands (in words): single 1.25 nmoles intramammary infusion 30 minutes post infection, 18 h
Procedure: as §3
To evaluate the efficacy of purified, individually administered peptidoglycan hydrolases in a murine model of bovine mastitis, female C57BL6/SJL mice were challenged by the intramammary route with 100 CFU S. aureus Newbould 305 in 50 μl buffer. A single 1.25 nmoles intramammary infusion of each desired peptidoglycan hydrolase (50 μl of a 25 μM solution) or 50 μl PBS was given 30 minutes post infection [with up to six glands treated per animal, each gland receiving a unique treatment] as described earlier (Schmelcher et al. 2012. Appl. Environ. Microbiol. 78:2297-2305; Kerr et al. 2001. Nat. Biotechnol. 19:66-70). Dams were euthanized 18 h post infusion, the mammary glands were aseptically dissected, and portions of the gland were used for determination of bacterial load and TNFα concentrations, as described previously (Schmelcher et al., supra).
Statistical analysis: The variables were analyzed as two-factor mixed models with Treatment as the factor and Mouse as random Blocks. This model […] within mouse correlations. Log(TNFα) was used. The variance grouping technique was used for log CFU and log TNFα to correct for variance heterogeneity. Means comparisons were done with Sidak adjusted p-values so that the experiment-wise error was 0.05. Log(TNFα) is back-transformed to the original units for graphing.

[5] = test system: intracellular S. aureus strain UAMS-1 in murine calvaria; assay: Ex vivo neonatal mouse calvaria intracellular eradication; assay type: cell-based
Procedure: (§4) Neonatal mouse whole calvaria were treated for 4 hours with chimeric peptidoglycan hydrolases or buffer alone, 24 hours post inoculation with GFP-expressing S. aureus. Calvaria were embedded in freeze media, sectioned, and subjected to fluorescence imaging. The image shown is a representative figure for triplicate sections of three separate calvaria. FIG. 8b depicts fluorescence intensity from these sections measured in ImageJ and defined as arbitrary fluorescence standardized to the untreated control. Error bars represent SEM of four replicate experiments. FIG. 8c depicts ex-vivo intracellular S. aureus eradication. Infected calvaria were homogenized and CFU were counted post treatment. Error bars represent SEM. FIG. 8d depicts a murine model of staphylococcal osteomyelitis. C57BL/6J mice were anesthetized and their femurs were surgically exposed. A trough was drilled through the bone cortex and the damaged bone sites were inoculated with 1×10^3 CFU S. aureus in agarose beads. After 24 hours, mice were treated (i.m. to site of infection) twice in a 24 h period with PBS or 5 mg/kg of triple fusion K-L or K-L-PTD1. The femurs were removed, homogenized, and plated to quantify the bacterial load. Bars indicate the average CFU recovered (N=6). […] Asterisks represent statistical significance as determined by one-way ANOVA followed by Tukey's posthoc test.
To examine the intracellular uptake and eradication in murine osteoblast-containing tissue samples, both ex vivo calvaria (skull cap), and in vivo femur injury models were tested. Calvaria were isolated from neonatal mice and infected with UAMS-1 strain of S. aureus (1×10^6 bacteria/calvaria) for 2 h at 37° C. in osteoblast growth medium in the absence of antibiotics. Following 3× washes with PBS, calvaria were exposed to 50 μg/ml of gentamicin for 15 min to kill extracellular bacteria and further cultured in gentamicin containing osteoblast growth media. After 24 h later, calvaria were treated with peptidoglycan hydrolases (5 μg/ml) or gentamicin only control for 2 h. Lysis buffer containing 0.05% trypsin and 0.25% Triton X-100 was used to homogenize the calvaria, the homogenates were quantitatively plated on LB agar plates, and the CFU were enumerated after 24 h. The data represents triplicate determinants of two separate experiments.
Calvaria were isolated, and infected as described above using GFP-tagged UAMS-1 strain of S. aureus. Two hours post-infection, calvaria were washed with PBS followed by a 15 minutes treatment with 50 μg/ml gentamicin to kill extracellular bacteria. 24 hours post-infection, calvaria were treated with 5 μg/ml peptidoglycan hydrolases or gentamicin only control for two hours and embedded in Tissue-Tek O.C.T compound (Sakura, Torrance, Calif.). […]

S. aureus = assay: Murine model of staphylococcal osteomyelitis (femur); assay type: in vivo, C57BL/6J mice; conditions: 5 mg/kg i.m. at site of infection, twice in 24 h, N=6
Procedure: as §4, with “A trough was drilled through the bone cortex and the damaged bone sites were inoculated with 1×10^3 CFU S. aureus in agarose beads. After 24 hours, mice were treated (i.m. to site of infection) twice in a 24 h period with PBS or 5 mg/kg of triple fusion K-L or K-L-PTD1.” left out, “load.” for “load. Bars indicate the average CFU recovered (N=6).”
We utilized a previously described (Marriott, supra) murine model of staphylococcal osteomyelitis that reproduces the clinical and gross pathological phases of inflammatory bone diseases, such as human post-traumatic osteomyelitis. […] Asterisks represent statistical significance as determined by one-way ANOVA followed by Tukey's posthoc test.

TNFα = assay: Murine model of mastitis, TNFα response; assay type: in vivo, C57BL6/SJL mice; conditions: mice with mastitis
Procedure: as §3, with “(p<0.05). […]” for “(p<0.05).”
Statistical analysis: The variables were analyzed as two-factor mixed models with Treatment as the factor and Mouse as random Blocks. […]

Substance	intracellular S. aureus CFUs relative to gentamicin only control [1]	intracellular S. aureus CFUs relative to gentamicin only control [2]	turbidity reduction (in vitro lytic) activity (S. aureus Newbould 305 [3])	greater CFU reduction than triple fusion K-L in the mastitis model (S. aureus Newbould 305 [4]; in vivo, compared with triple fusion K-L)	bacterial load / clearance of mammary glands (in words) (S. aureus Newbould 305 [4])	live bacteria (CFU) recovered from calvaria ([5]; 5 μg/ml for 2 h, homogenized calvaria)	elimination of GFP-labeled intracellular S. aureus (fluorescence) ([5]; 5 μg/ml, 24 hours post-infection, sectioned calvaria)	bacterial load in femur compared to no treatment (S. aureus)	TNFα response (in words) (TNFα)
1-Sigma: commercial lysostaphin (Sigma-Aldrich, St. Louis, Mo.)	Neither commercial lysostaphin (1-Sigma; Sigma-Aldrich, St. Louis, Mo.) nor the C-terminal His6-tagged lysostaphin (construct 1) were able to decrease the intracellular CFUs	Neither commercial lysostaphin (1-Sigma; Sigma-Aldrich, St. Louis, Mo.) nor the C-terminal His6-tagged lysostaphin (construct 1) were able to decrease the intracellular CFUs	–	–	–	–	–	–	–
K-L-PTD1: triple fusion K-L with C-terminal PTD 1 (Antp 43-58); SEQ ID NO:53, protein SEQ ID NO:54	–	–	reduced the in vitro activity	~3 orders of magnitude	clearance of the mammary gland to a level equivalent to that of lysostaphin alone or L-PTD1	able to reduce the number of live bacteria recovered from sectioned calvaria	able to eliminate GFP-labeled intracellular S. aureus strain UAMS-1 from murine calvaria	significantly reduced bacterial load as compared to no treatment	–
L-PTD1: lysostaphin-His6 with C-terminal PTD 1 (Antp 43-58); SEQ ID NO:9	–	–	reduced the in vitro activity	–	further decreased the mean bacterial load	–	–	–	further decreased the mean bacterial load and TNFα concentration

Reference: patent publication US20160097044A1, “Antimicrobial Enzyme Fusions Reduce Resistance and Kill Intracellular Staphylococcus aureus” (The United States of America, as Represented by the …, priority 2014, published 2016)
